# Experimental data published in patent US11254657B2, “Plinabulin compositions” (priority 2015, dated 2022).
# Entries after “also recorded” stand apart in the source; their conditions may differ. Like-named read-outs stand apart in the source and are kept apart here.
# Experiments:
# Format in all cases: physicochemical
# [1] = Dissolution in kolliphor (40% wt) and propylene glycol (60% wt); conditions: mixture of kolliphor (40% wt) and propylene glycol (60% wt)
# Experimental: A batch of plinabulin having a KF analysis of about 3.1% for water content was added to a mixture of kolliphor (40% wt) and propylene glycol (60% wt). […] The batch was reprocessed according to the steps described in FIG. 29 to form the plinabulin monohydrate (Form 1).
# [2] = Dynamic Vapor Sorption (DVS) test
# Experimental: The DSC data were collected using a TA Instruments Q10 DSC. Typically, samples (˜2 mg) were placed in hermetic alodined aluminum sample pans and scanned from 30 to 300° C. at a rate of 10° C./min under a nitrogen purge of 50 mL/min. The TGA data were collected using a TA Instruments TGA Q500. Typically, samples (˜10 mg) were placed in an open, pre-tared aluminum sample pan and scanned from 30 to 300° C. at a rate of 10° C./min using a nitrogen purge at 60 mL/min. The X-ray powder diffraction patterns were obtained using a Bruker D8 Advance equipped with a Cu Ku radiation source ([…]), a 9-position sample holder and a LYNXEYE Super Speed Detector. Typically, the duration of each scan was 180 seconds and the 2θ range was 4 to 40°. Samples were placed on zero-background, silicon plate holders. Samples were analyzed using an Aquadyne DVS-2 gravimetric water sorption analyzer. The relative humidity was adjusted between 2-95% and the weight of sample was continuously monitored and recorded.
# A DVS experiment was run on the plinabulin monohydrate (Form 1). The sample gained ˜0.1% mass at 95% RH which was lost on drying to 0% RH without hysteresis. […] The XRPD pattern of the pre-DVS sample (Form 1 plinabulin monohydrate) overlays with the XRPD patterns of the post-DVS sample (Form 1 plinabulin monohydrate).
# [3] = Gravimetric solubility measurement in solvents; conditions: for solubility at 3 days: thermodynamic from solid, slurried 3 days
# Experimental: A plinabulin compound was slurried in 15 different solvents/solvent mixtures as shown in Table 9 at 15° C. and 45° C. for 3 days for gravimetric solubility measurement. About 70 mg of solid was added to a vial for each experiment followed by addition of 0.7 mL of the respective solvents. Next, the slurry was centrifuged and the supernatant was added to pre-weighed vials and evaporated to dryness under vacuum. The vials with remaining solids were weighed again to calculate the solubility. […]
# [4] = High humidity exposure stability; conditions: >95% RH for 13 days
# From the text: Form 1 was also stable under various humidity conditions. On the other hand, the crystalline forms converted to Form I monohydrate when exposed to moisture.
# [5] = Drying study in vacuum oven at 50° C.; conditions: overnight and over the weekend
# Experimental: A sample of plinabulin monohydrate (Form 1) was placed in a vacuum oven at 50° C. overnight and over the weekend.
# [6] = Karl Fischer moisture level on extended drying and humid exposure
# Experimental: Analysis by KF after drying at 45° C. under vacuum for an additional 70 hours indicated the moisture level had decreased to 4.1%. […] This sample was placed in a glove bag in an open container with an open container of water and the moisture level monitored. After 4 hours the moisture level was measured as 5.0%. After 18.5 hours the moisture level was measured as 4.8% and after 51 hours the KF result was 4.9%.
# A sample of plinabulin compound (4.92 g) was stirred in ethanol (147.6 g) and heated to reflux (fully soluble at 75° C.). The solution was then allowed to cool and monitored for precipitation. A precipitate was observed when the solution was at 48° C. The mixture was re-heated to reflux providing a clear yellow solution. To the hot solution was added 295 g of water (approximately twice the mass of ethanol) allowing the mixture to cool during the addition. A precipitate was observed after charging approximately 150 mL of water with the temperature at 48° C. This solution was allowed to cool to room temperature. The solids were filtered and washed three times with 20 g of water. The solid was dried at 40-45° C. for 2.5 days to give 4.82 g, 98.0% recovery. […] Analysis by KF after drying at 45° C. under vacuum for an additional 70 hours indicated the moisture level had decreased to 4.4%. The XRPD of this sample indicates it was essentially unchanged, a mixture of Forms 1 and 3 with additional peaks (at around 12.26°, 15.19° and 28.79° 2θ degrees). This sample was placed in a glove bag in an open container with an open container of water and the moisture level monitored. After 4 hours the moisture level was measured as 5.0%. After 18.5 hours the moisture level was measured as 4.9% and after 51 hours the KF result was 5.1%.
# [7] = listed as plinabulin monohydrate (Form 1)
smiles,measurement,setting,value
CC(C)(C)c1[nH]cnc1/C=c1\[nH]c(=O)/c(=C/c2ccccc2)[nH]c1=O [Form 3],dissolution in diluent mixture,[1]; listed as anhydrous plinabulin (Form 3),insoluble particles
same,post-DVS sample versus pre-DVS sample by XRPD,[2],differed from the pre-DVS sample
same,mass lost in DVS,[2]; at 90% RH,about 0.2%
"CC(C)(C)c1[nH]cnc1/C=c1\[nH]c(=O)/c(=C/c2ccccc2)[nH]c1=O [plinabulin compound, (3Z,6Z)-3-Benzylidene-6-{[5-(2-methyl-2-propanyl)-1H-imidazol-4-yl]methylene}-2,5-piperazinedione]",solubility (in words),[3]; THF,highly soluble
"CC(C)(C)c1[nH]cnc1/C=c1\[nH]c(=O)/c(=C/c2ccccc2)[nH]c1=O [plinabulin monohydrate, (3Z,6Z)-3-Benzylidene-6-{[5-(2-methyl-2-propanyl)-1H-imidazol-4-yl]methylene}-2,5-piperazinedione]",dissolution in diluent mixture,[1]; [7],dissolved completely
same,stability in high humidity environment,[4]; listed as form 1,no change in solid form
same,stability in high humidity environment,[4]; [7],no change in solid form; also recorded: remained stable with no change in mass
same,stability during the DVS and drying tests (in words),[2],remained stable
same,mass gained in DVS,[2]; at 95% RH,~0.1%
same,post-DVS sample versus pre-DVS sample by XRPD,[2]; [7],no transformation had taken place
same,solubility at 3 days,"[3]; organic solvent or mixture, ACN, 15° C., read-out: Solubility at 15° C.",3000 µg/mL
same,solubility at 3 days,"[3]; organic solvent or mixture, ACN, 45° C., read-out: Solubility at 45° C.",7000 µg/mL
same,solubility at 3 days,"[3]; organic solvent or mixture, Acetone:water (95:5), 15° C., read-out: Solubility at 15° C.",6000 µg/mL
same,solubility at 3 days,"[3]; organic solvent or mixture, Acetone:water (95:5), 45° C., read-out: Solubility at 45° C.",16000 µg/mL
same,solubility at 3 days,"[3]; organic solvent or mixture, Acetone, 15° C., read-out: Solubility at 15° C.",11000 µg/mL
same,solubility at 3 days,"[3]; organic solvent or mixture, Acetone, 45° C., read-out: Solubility at 45° C.",20000 µg/mL
same,solubility at 3 days,"[3]; organic solvent or mixture, DCM, 15° C., read-out: Solubility at 15° C.",2000 µg/mL
same,solubility at 3 days,"[3]; organic solvent or mixture, EtOAc, 15° C., read-out: Solubility at 15° C.",3000 µg/mL
same,solubility at 3 days,"[3]; organic solvent or mixture, EtOAc, 45° C., read-out: Solubility at 45° C.",8000 µg/mL
same,solubility at 3 days,"[3]; organic solvent or mixture, EtOH:water (95:5), 15° C., read-out: Solubility at 15° C.",4000 µg/mL
same,solubility at 3 days,"[3]; organic solvent or mixture, EtOH:water (95:5), 45° C., read-out: Solubility at 45° C.",13000 µg/mL
same,solubility at 3 days,"[3]; organic solvent or mixture, EtOH, 15° C., read-out: Solubility at 15° C.",5000 µg/mL
same,solubility at 3 days,"[3]; organic solvent or mixture, EtOH, 45° C., read-out: Solubility at 45° C.",13000 µg/mL
same,solubility at 3 days,"[3]; organic solvent or mixture, Heptane, 15° C., read-out: Solubility at 15° C.",< 1000 µg/mL
same,solubility at 3 days,"[3]; organic solvent or mixture, Heptane, 45° C., read-out: Solubility at 45° C.",3000 µg/mL
same,solubility at 3 days,"[3]; organic solvent or mixture, IPA, 15° C., read-out: Solubility at 15° C.",1000 µg/mL
same,solubility at 3 days,"[3]; organic solvent or mixture, IPA, 45° C., read-out: Solubility at 45° C.",7000 µg/mL
same,solubility at 3 days,"[3]; organic solvent or mixture, MEK, 15° C., read-out: Solubility at 15° C.",11000 µg/mL
same,solubility at 3 days,"[3]; organic solvent or mixture, MEK, 45° C., read-out: Solubility at 45° C.",23000 µg/mL
same,solubility at 3 days,"[3]; organic solvent or mixture, MTBE, 15° C., read-out: Solubility at 15° C.",< 1000 µg/mL
same,solubility at 3 days,"[3]; organic solvent or mixture, MTBE, 45° C., read-out: Solubility at 45° C.",5000 µg/mL
same,solubility at 3 days,"[3]; organic solvent or mixture, MeOH, 15° C., read-out: Solubility at 15° C.",5000 µg/mL
same,solubility at 3 days,"[3]; organic solvent or mixture, MeOH, 45° C., read-out: Solubility at 45° C.",13000 µg/mL
same,solubility at 3 days,"[3]; organic solvent or mixture, THF, 15° C., read-out: Solubility at 15° C.",40000 µg/mL
same,solubility at 3 days,"[3]; organic solvent or mixture, THF, 45° C., read-out: Solubility at 45° C.",96000 µg/mL
same,solubility at 3 days,"[3]; organic solvent or mixture, Toluene, 15° C., read-out: Solubility at 15° C.",1000 µg/mL
same,solubility at 3 days,"[3]; organic solvent or mixture, Toluene, 45° C., read-out: Solubility at 45° C.",7000 µg/mL
same,solubility at 3 days,"[3]; Water, 15° C., read-out: Solubility at 15° C.",< 1000 µg/mL
same,solubility at 3 days,"[3]; Water, 45° C., read-out: Solubility at 45° C.",< 1000 µg/mL
same,change in weight during drying,[5],no change in weight
same,stability on drying,[5]; [7],stable to drying; also recorded: remained stable
same,moisture level (KF),[6]; after drying at 45° C. under vacuum for an additional 70 hours,4.1%
same,moisture level (KF),"[6]; dried sample in glove bag with open container of water, after 4 hours",5.0%
same,moisture level (KF),"[6]; dried sample in glove bag with open container of water, after 18.5 hours",4.8%
same,moisture level (KF),"[6]; dried sample in glove bag with open container of water, after 51 hours",4.9%
